PMC9118996, “Directed evolution of Zymomonas mobilis sugar facilitator Glf to overcome glucose inhibition” (Journal of Industrial Microbiology & Biotechnology, 2021)

Biological target: T1, Glf (Zymomonas mobilis sugar / glucose facilitator) (Zymomonas mobilis, UniProt P21906)
T1 construct: full-length glf coding region with 20 bp native flanks in pTrc99A (pGlfwt), no tag told; expressed in E. coli W derivatives EG29 and EG51A lacking glucose and xylose uptake
T1 sequence (P21906 1-473): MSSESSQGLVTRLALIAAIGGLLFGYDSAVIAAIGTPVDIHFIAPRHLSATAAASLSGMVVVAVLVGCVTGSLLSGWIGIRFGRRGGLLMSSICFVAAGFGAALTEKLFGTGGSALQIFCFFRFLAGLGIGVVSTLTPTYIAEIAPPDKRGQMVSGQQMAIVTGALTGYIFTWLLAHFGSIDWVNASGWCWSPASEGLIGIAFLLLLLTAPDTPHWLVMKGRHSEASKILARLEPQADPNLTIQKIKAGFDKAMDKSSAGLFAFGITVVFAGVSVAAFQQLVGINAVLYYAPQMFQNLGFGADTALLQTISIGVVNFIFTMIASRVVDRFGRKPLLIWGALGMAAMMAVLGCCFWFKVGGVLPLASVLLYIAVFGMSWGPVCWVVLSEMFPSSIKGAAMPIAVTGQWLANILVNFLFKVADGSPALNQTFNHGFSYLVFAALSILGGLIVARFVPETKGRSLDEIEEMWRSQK
Assay: xylose utilization in fermentation of transport-deficient E. coli with Glf vs empty vector (HPLC)
Type: cell-based, Escherichia coli
Conditions: E. coli EG51A (EG29 glk-), 34 g/l xylose alone, pH 7.0, 37 °C, 10 µM IPTG; facilitated uptake; whole-cell read-out

Q: For `OC1OC[C@@H](O)[C@H](O)[C@H]1O` (stereo partly drawn) [D-xylose], which “xylose utilization in fermentation of transport-deficient E. coli with Glf vs em” value is on record?
A: The value was “EG51A transformed with pGlfwt showed much improved xylose utilization compared to EG51A with empty vector”.
